The IC50 is the concentration that gives 50% inhibition. Read a high IC50 as weaker potency. The term Ki denotes a dissociation constant, usually derived from enzyme kinetics or from competition with a known ligand. Low readings indicate a stronger hold on the target, high ones a looser hold on the target.

The values that follow come from patent US20120252865A1, “CARBAMATE DERIVATIVES IN PARTICULAR FOR THE TREATMENT OF NEUROLOGICAL DISORDERS” (SIGMA-TAU INDUSTRIE FARMACEUTICHE RIUNITE S.P.A., priority 2009, published 2012).

For experiment [1], the target named is T1, fatty acid amide hydrolase (FAAH, EC 3.5.1.4) (Mus musculus, UniProt O08914).
T1 construct: The reaction was initiated by the addition of mouse brain homogenate (40 μg); from tissue; host or cells: mouse brain homogenate
T1 sequence (O08914 1-579): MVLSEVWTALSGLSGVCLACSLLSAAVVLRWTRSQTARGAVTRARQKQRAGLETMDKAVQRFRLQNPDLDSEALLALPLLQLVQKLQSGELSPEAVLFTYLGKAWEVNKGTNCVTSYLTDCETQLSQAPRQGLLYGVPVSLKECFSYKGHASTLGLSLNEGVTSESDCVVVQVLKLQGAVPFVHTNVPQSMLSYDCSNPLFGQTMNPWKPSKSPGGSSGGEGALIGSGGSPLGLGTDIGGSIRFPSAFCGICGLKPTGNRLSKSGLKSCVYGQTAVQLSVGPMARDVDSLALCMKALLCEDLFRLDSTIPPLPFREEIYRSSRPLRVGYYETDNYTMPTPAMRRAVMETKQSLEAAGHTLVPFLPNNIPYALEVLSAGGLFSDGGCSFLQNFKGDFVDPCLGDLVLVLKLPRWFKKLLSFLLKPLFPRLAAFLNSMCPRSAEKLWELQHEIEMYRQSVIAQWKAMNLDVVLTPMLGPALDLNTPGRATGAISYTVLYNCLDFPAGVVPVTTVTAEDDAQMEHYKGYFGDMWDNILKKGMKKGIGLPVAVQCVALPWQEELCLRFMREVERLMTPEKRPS
The experiment in a line: FAAH assay: release of [1-14C]AA from [1-14C]AnNH by RP-HPLC. The class given is biochemical. The following applies: mouse brain homogenate; for IC50: 37° C., 15 min, pH 9.0; for Ki: Lineweaver-Burk analysis. On the procedure: The compounds of the present invention show affinity and inhibit the enzymatic activity of the fatty acid amide hydrolase enzyme.
The assay of FAAH (EC 3.5.1.4) was performed by measuring the release of [1-^14C]AA from [1-^14C]AnNH (52 mCi/mmol), using RP-HPLC. Also [^3H]AnNH (205 Ci/mmol) could be used as substrate, measuring the release of [^3H]AA under the same experimental conditions described below for [1-^14C]AnNH. Compounds of the invention, at various concentrations, were added in 200 μl hydrolase assay buffer (50 mM Tris-HCl, pH 9.0), in 2-ml Eppendorf tubes, 20 min before adding [1-^14C]AnNH2, up to a concentration of 10 μM. The reaction was initiated by the addition of mouse brain homogenate (40 μg), and after incubation at 37° C. for 15 min it was stopped by the addition of 800 μl ice-cold methanol/chloroform (2:1, v/v) with vortexing. This mixture was allowed to stand at room temperature for 30 min, then 240 μl chloroform and 240 μl water were added with vortexing. After 10 min at room temperature, the mixture was centrifuged at 3000 g for 5 min, the upper aqueous layer was removed by suction and the lower organic phase was dried by spinning the samples in a DNA MINI speedvac (Heto-Holten, Denmark), at 100 mbar and 30° C. for 30 min. The residue was dissolved into 50 μl methanol and subjected to RP-HPLC analysis for AA quantitation, as detailed below. FAAH specific activity was expressed as pmol AA released/min/mg protein. Kinetic studies were performed by Lineweaver-Burk analysis, using [1-^14C]AnNH, [1-^14C]ODNHEtOH, or [1-^14C]ODNH2 in the concentration range 0-12 μM. Fitting of the experimental points by a linear regression programme (Kaleidagraph 3.0) yielded straight lines with r values >0.97.

A further experiment concerns mechanical hyperalgesia. As to the kind of experiment: Paw withdrawal test for mechanical hyperalgesia (Randall-Selitto analgesimeter). The following applies: rat; for analgesic activity (nociceptive threshold, paw withdrawal): acute oral treatment, 30 mg/kg (FIG. 1). The class given is in vivo. On the procedure:
The paw withdrawal test was used to assess mechanical hyperalgesia. The nociceptive threshold, expressed in grams, was measured by applying increasing pressure to the left and right hind paws using a Randall-Selitto analgesimeter (Ugo Basile, Varese, Italy). The parameter used to quantify the nociceptive threshold was defined as the pressure (grams) at which the rat withdrew its paw. Rats were habituated to the testing procedures and handling by the investigator in the week prior to the experiment.
Dose response experiments at 10, 30 and 100 mg/kg were also conducted with ST4068, ST3911 and ST3913.

For the next experiment, the target named is CB1R (Homo sapiens, UniProt P21554). As to the kind of experiment: Selectivity profile: CB1R. The following applies: tested at a multiple of the FAAH IC50. The class given is binding. The protocol: (§1) The compounds of the present invention were also evaluated with regard to their selectivity profile against the following targets: AMT, NAPE-PLD, MAGL, DAGL, CB1/CB2 and TRPV1 according to the procedures described in Maccarrone M., et al., J. Biol. Chem., 2000, 275, 13484, Fezza F., et al., Anal Biochem., 2005, 339, 113, Dinh T. P., et al., 2002, Proc. Natl. Acad. Sci. 99, 10819, Bisogno T., et al., 2003, J. Cell Biol., 163, 463, Maccarrone M., et al., J. Biol. Chem., 2000, 275, 31938, Ross R. A., et al., Br. J. Pharmacol., 2001, 132, 631.
Sequence of CB1R (P21554 whole entry): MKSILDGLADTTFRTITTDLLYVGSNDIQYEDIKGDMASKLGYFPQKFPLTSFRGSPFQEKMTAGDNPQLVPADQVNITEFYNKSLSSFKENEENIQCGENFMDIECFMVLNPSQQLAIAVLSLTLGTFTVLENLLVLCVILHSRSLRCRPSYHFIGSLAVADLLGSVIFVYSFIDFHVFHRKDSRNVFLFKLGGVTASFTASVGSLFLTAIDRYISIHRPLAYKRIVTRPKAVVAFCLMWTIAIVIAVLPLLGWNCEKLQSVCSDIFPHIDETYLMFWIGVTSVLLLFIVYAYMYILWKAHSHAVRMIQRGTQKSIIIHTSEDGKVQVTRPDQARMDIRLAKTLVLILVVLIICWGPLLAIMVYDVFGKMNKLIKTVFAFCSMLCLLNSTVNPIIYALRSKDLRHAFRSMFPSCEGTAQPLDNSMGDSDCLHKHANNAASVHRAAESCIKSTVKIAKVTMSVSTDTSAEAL

The target of a further experiment is CB2R (Homo sapiens, UniProt P34972). The experiment in a line: Selectivity profile: CB2R. As to conditions: tested at a multiple of the FAAH IC50. The class given is binding. The protocol: as §1
Sequence of CB2R (P34972 whole entry): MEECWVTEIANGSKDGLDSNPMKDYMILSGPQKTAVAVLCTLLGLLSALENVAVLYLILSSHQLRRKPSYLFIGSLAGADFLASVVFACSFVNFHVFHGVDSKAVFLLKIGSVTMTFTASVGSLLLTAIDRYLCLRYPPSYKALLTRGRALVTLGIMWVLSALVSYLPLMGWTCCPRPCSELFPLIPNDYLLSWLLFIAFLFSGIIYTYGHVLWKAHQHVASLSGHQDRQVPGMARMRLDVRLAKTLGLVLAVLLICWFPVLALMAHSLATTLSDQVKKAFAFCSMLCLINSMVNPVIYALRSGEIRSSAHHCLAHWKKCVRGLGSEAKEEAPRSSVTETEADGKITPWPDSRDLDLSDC
Another experiment concerns the target NAPE-PLD (Homo sapiens, UniProt Q6IQ20). As to the kind of experiment: Selectivity profile: NAPE-PLD. The following applies: tested at a multiple of the FAAH IC50. The class given is biochemical. The protocol: as §1
In another experiment the test system is AMT. The experiment in a line: Selectivity profile: AMT. The class given is cell-based. The protocol:
as §1

Another experiment addresses T2, MAGL (Homo sapiens, UniProt Q99685).
T2 sequence (Q99685 1-303): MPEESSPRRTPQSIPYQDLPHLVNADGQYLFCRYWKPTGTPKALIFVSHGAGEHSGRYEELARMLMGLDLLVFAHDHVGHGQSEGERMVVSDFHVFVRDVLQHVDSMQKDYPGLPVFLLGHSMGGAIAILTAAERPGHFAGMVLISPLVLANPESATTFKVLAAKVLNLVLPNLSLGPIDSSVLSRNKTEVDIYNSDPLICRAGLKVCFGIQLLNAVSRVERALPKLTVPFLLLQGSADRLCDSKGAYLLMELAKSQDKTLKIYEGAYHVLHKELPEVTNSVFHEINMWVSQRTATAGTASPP
The experiment in a line: Selectivity profile: MAGL. The class given is biochemical. The following applies: tested at a multiple of the FAAH IC50. On the procedure:
as §1

Another experiment concerns TRPV1. The experiment in a line: Selectivity profile: TRPV1. The following applies: tested at a multiple of the FAAH IC50. The class given is binding. The protocol:
as §1

A further experiment deals with DAGL. The experiment in a line: Selectivity profile: DAGL. The class given is biochemical. As to conditions: tested at a multiple of the FAAH IC50. On the procedure: as §1
Where [2] appears, read: 100 mg/kg, compared with 30 mg/kg (FIGS. 2, 3 and 4).

Sequence of NAPE-PLD (Q6IQ20 whole entry, species assumed): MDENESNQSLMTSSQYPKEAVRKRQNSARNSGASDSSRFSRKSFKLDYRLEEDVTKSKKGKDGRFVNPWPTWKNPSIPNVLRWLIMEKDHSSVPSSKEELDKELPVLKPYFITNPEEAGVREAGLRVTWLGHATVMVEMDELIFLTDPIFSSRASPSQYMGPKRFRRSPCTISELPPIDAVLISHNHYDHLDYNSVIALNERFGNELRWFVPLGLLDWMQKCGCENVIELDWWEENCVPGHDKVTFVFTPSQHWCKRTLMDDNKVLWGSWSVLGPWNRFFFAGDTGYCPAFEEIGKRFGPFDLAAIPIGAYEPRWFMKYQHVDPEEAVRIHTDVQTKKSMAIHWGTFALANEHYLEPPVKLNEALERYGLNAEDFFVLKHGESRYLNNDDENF

In [1], `CCCCNC(=O)Oc1cccc(-n2ccc(C(N)=O)c2)c1` [Example 1, butyl-carbamic acid 3-(3-carbamoyl-pyrrol-1-yl)-phenyl ester] gave an IC50 of 100 to 500 nM and a Ki of 10 to 100 nM.

The compound `C#CCCCCCCCCCNC(=O)Oc1cccc(-n2ccc(C(N)=O)c2)c1` [Example 2, undec-10-ynyl-carbamic acid 3-(3-carbamoyl-pyrrol-1-yl)-phenyl ester] gave an IC50 in experiment [1] of less than 10 nM. The same compound registered a Ki in experiment [1] of less than 10 nM. In addition, the “analgesic activity, dose response” value is “did exert analgesic activity” in the experiment on mechanical hyperalgesia (30 mg/kg (FIGS. 2, 3 and 4)); “higher effect” in the experiment with mechanical hyperalgesia (setting [2]). In addition, the “analgesic activity (nociceptive threshold, paw withdrawal)” value in the experiment with mechanical hyperalgesia was “significant analgesic activity”.

With `NC(=O)c1ccn(-c2cccc(OC(=O)NC3CCCCC3)c2)c1` [Example 3, cyclohexyl-carbamic acid 3-(3-carbamoyl-pyrrol-1-yl)-phenyl ester], in [1], the IC50 was 100 to 500 nM and the Ki was 10 to 100 nM.

In experiment [1], `CCCCNC(=O)Oc1cccc(-c2oc(C)cc2C(N)=O)c1` [Example 5, butyl-carbamic acid 3-(3-carbamoyl-5-methyl-furan-2-yl)-phenyl ester] came in with an IC50 of 500 to 5000 nM and a Ki of 100 to 500 nM.

Turning to `Cc1cc(C(N)=O)c(-c2cccc(OC(=O)NCCCCCCc3ccccc3)c2)o1` [Example 6, (6-phenyl-hexyl)-carbamic acid 3-(3-carbamoyl-5-methyl-furan-2-yl)-phenyl ester], in [1], the IC50 was less than 10 nM and the Ki was less than 10 nM. Also, in the experiment with mechanical hyperalgesia (30 mg/kg (FIGS. 2, 3 and 4)), the “analgesic activity, dose response” value was “did exert analgesic activity”. Besides, in the experiment with mechanical hyperalgesia (setting [2]), the “analgesic activity, dose response” value is given as “higher effect”. The “analgesic activity (nociceptive threshold, paw withdrawal)” value in the experiment with mechanical hyperalgesia is given as “significant analgesic activity”.

For `Cc1cc(C(N)=O)c(-c2cccc(OC(=O)NCCCCCCc3ccccc3)c2)s1` [Example 7, (6-phenyl-hexyl)-carbamic acid 3-(3-carbamoyl-5-methyl-thiophen-2-yl)-phenyl ester], in [1], the IC50 was less than 10 nM and the inhibitory constant (Ki) is less than 10 nM. For the same compound, the “inhibitory activity on CB1R” value at CB1R is “−−−− (1000 times [IC50] with an inhibitory activity on the target <60%)”. In addition, on CB2R, the “inhibitory activity on CB2R” value was “−−−− (1000 times [IC50] with an inhibitory activity on the target <60%)”. Further, at NAPE-PLD, the “inhibitory activity on NAPE-PLD” value is “−−−− (1000 times [IC50] with an inhibitory activity on the target <60%)”. In the experiment on AMT, the “AMT, % @ 1 μM” value is on record as 60% @ 1 μM. Also, at MAGL, the “inhibitory activity on MAGL” value was “−−−− (1000 times [IC50] with an inhibitory activity on the target <60%)”.

In [1], `Cc1oc(-c2cccc(OC(=O)NC3CCCCC3)c2)cc1C(N)=O` [Example 8, cyclohexyl-carbamic acid 3-(4-carbamoyl-5-methyl-furan-2-yl)-phenyl ester] showed an IC50 of 100 to 500 nM.

Regarding `Cc1oc(-c2cccc(OC(=O)NCCCCCCc3ccccc3)c2)cc1C(N)=O` [Example 9, (6-phenyl-hexyl)-carbamic acid 3-(4-carbamoyl-5-methyl-furan-2-yl)-phenyl ester], in experiment [1], the IC50 fell in the range of 10 to 100 nM and the Ki was less than 10 nM. For the same compound, the “inhibitory activity on CB1R” value against CB1R was “−−−− (1000 times [IC50] with an inhibitory activity on the target <60%)”. On CB2R, the “inhibitory activity on CB2R” value is “−−−− (1000 times [IC50] with an inhibitory activity on the target <60%)”. Further, the “inhibitory activity on TRPV1” value with TRPV1 was “−−−− (1000 times [IC50] with an inhibitory activity on the target <60%)”. The “inhibitory activity on NAPE-PLD” value at NAPE-PLD was “−−−− (1000 times [IC50] with an inhibitory activity on the target <60%)”. Moreover, in the experiment with AMT, the “AMT, % @ 1 μM” value was 80% @ 1 μM. The “inhibitory activity on DAGL” value with DAGL is “−−−− (1000 times [IC50] with an inhibitory activity on the target <60%)”. Further, the “inhibitory activity on MAGL” value against MAGL is “−−−− (1000 times [IC50] with an inhibitory activity on the target <60%)”.

Consider `CCCCNC(=O)Oc1cccc(-c2oc(C)cc2C(=O)OCC)c1` [Example 10, 2-(3-butylcarbamoyloxy-phenyl)-5-methyl-furan-3-carboxylic acid ethyl ester], for which, in [1], the IC50 lay in the range of 100 to 500 nM.

Regarding `C#CCCCCCCCCCOC(=O)c1ccn(-c2cccc(OC(=O)NCCCC)c2)c1` [Example 11, 1-(3-butylcarbamoyloxy-phenyl)-1H-pyrrole-3-carboxylic acid undec-10-ynyl ester], the IC50 in experiment [1] is 100 to 500 nM.

Turning to `CCCCNC(=O)Oc1cccc(-n2ccc(C(=O)OCCCCCCc3ccccc3)c2)c1` [Example 12, 1-(3-butylcarbamoyloxy-phenyl)-1H-pyrrole-3-carboxylic acid 6-phenyl-hexyl ester], in experiment [1], the IC50 lay within 100 to 500 nM.

Regarding `Cc1cc(C(N)=O)c(-c2cccc(OC(=O)NC3CCCCC3)c2)o1` [Example 13, cyclohexyl-carbamic acid 3-(3-carbamoyl-5-methyl-furan-2-yl)-phenyl ester], the IC50 in [1] lay in the range of 100 to 500 nM.

In the case of `Cc1cc(C(N)=O)c(-c2cccc(OC(=O)NC3CCCCC3)c2)s1` [Example 14, cyclohexyl-carbamic acid 3-(3-carbamoyl-5-methyl-thiophen-2-yl)-phenylester], the IC50 in experiment [1] fell in the range of 100 to 500 nM.
